Reference: PubChem BioAssay AID1259407 (Chemical Carcinogenesis Research Information System (CCRIS), 2018)
Active and inactive are the calls of the source. No rule for the calls is given here.

Test system: CCRIS mutagenicity, Ames/micronucleus/aberration tests
Test: CCRIS mutagenicity studies
Conditions: Test System: AMES SALMONELLA TYPHIMURIUM
[1] = Strain/Indicator: TA98, Metabolic Activation: HAMSTER, LIVER, S-9, AROCLOR 1254 (10%), Method: PREINCUBATION
[2] = Strain/Indicator: TA98, Metabolic Activation: NONE, Method: PREINCUBATION
[3] = Strain/Indicator: TA98, Metabolic Activation: RAT, LIVER, S-9, AROCLOR 1254 (10%), Method: PREINCUBATION
[4] = Strain/Indicator: TA100, Metabolic Activation: HAMSTER, LIVER, S-9, AROCLOR 1254 (10%), Method: PREINCUBATION
[5] = Strain/Indicator: TA100, Metabolic Activation: NONE, Method: PREINCUBATION
[6] = Strain/Indicator: TA100, Metabolic Activation: RAT, LIVER, S-9, AROCLOR 1254 (10%), Method: PREINCUBATION
[7] = Strain/Indicator: TA1535, Metabolic Activation: HAMSTER, LIVER, S-9, AROCLOR 1254 (10%), Method: PREINCUBATION
[8] = Strain/Indicator: TA1535, Metabolic Activation: NONE, Method: PREINCUBATION
[9] = Strain/Indicator: TA1537, Metabolic Activation: HAMSTER, LIVER, S-9, AROCLOR 1254 (10%), Method: PREINCUBATION
[10] = Strain/Indicator: TA1537, Metabolic Activation: NONE, Method: PREINCUBATION
[11] = Strain/Indicator: TA1537, Metabolic Activation: RAT, LIVER, S-9, AROCLOR 1254 (10%), Method: PREINCUBATION
[12] = Strain/Indicator: TA1535, Metabolic Activation: RAT, LIVER, S-9, AROCLOR 1254 (10%), Method: PREINCUBATION

| SMILES | mutagenic call [1] | mutagenic call [2] | mutagenic call [3] | mutagenic call [4] | mutagenic call [5] | mutagenic call [6] | mutagenic call [7] | mutagenic call [8] | mutagenic call [9] | mutagenic call [10] | mutagenic call [11] | mutagenic call [12] | other results |
| --- | --- | --- | --- | --- | --- | --- | --- | --- | --- | --- | --- | --- | --- |
| N#CCc1ccccc1 | inactive; negative | inactive; negative | inactive; negative | inactive; negative | inactive; negative | inactive; negative | inactive; negative | inactive; negative | inactive; negative | inactive; negative | inactive; negative |  | mutagenic call (Strain/Indicator: TA97, Metabolic Activation: HAMSTER, LIVER, S-9, AROCLOR 1254 (10%), Method: PREINCUBATION): inactive; negative; mutagenic call (Strain/Indicator: TA97, Metabolic Activation: HAMSTER, LIVER, S-9, AROCLOR 1254 (30%), Method: PREINCUBATION): inactive; negative; mutagenic call (Strain/Indicator: TA97, Metabolic Activation: NONE, Method: PREINCUBATION): inactive; negative; mutagenic call (Strain/Indicator: TA97, Metabolic Activation: RAT, LIVER, S-9, AROCLOR 1254 (5 OR 30%), Method: PREINCUBATION): inactive; negative; mutagenic call (Strain/Indicator: TA97, Metabolic Activation: RAT, LIVER, S-9, AROCLOR 1254 (10%), Method: PREINCUBATION): inactive; negative; mutagenic call (Strain/Indicator: TA98, Metabolic Activation: HAMSTER, LIVER, S-9, AROCLOR 1254 (30%), Method: PREINCUBATION): inactive; negative; mutagenic call (Strain/Indicator: TA98, Metabolic Activation: RAT, LIVER, S-9, AROCLOR 1254 (30%), Method: PREINCUBATION): inactive; negative; mutagenic call (Strain/Indicator: TA100, Metabolic Activation: HAMSTER, LIVER, S-9, AROCLOR 1254 (30%), Method: PREINCUBATION): inactive; negative; mutagenic call (Strain/Indicator: TA100, Metabolic Activation: RAT, LIVER, S-9, AROCLOR 1254 (30%), Method: PREINCUBATION): inactive; negative; mutagenic call (Strain/Indicator: TA1535, Metabolic Activation: HAMSTER, LIVER, S-9, AROCLOR 1254 (30%), Method: PREINCUBATION): inactive; negative; mutagenic call (Strain/Indicator: TA1535, Metabolic Activation: RAT, LIVER, S-9, AROCLOR 1254 (30%), Method: PREINCUBATION): inactive; negative; mutagenic call (Strain/Indicator: TA1537, Metabolic Activation: HAMSTER, LIVER, S-9, AROCLOR 1254 (30%), Method: PREINCUBATION): inactive; negative; mutagenic call (Strain/Indicator: TA1537, Metabolic Activation: RAT, LIVER, S-9, AROCLOR 1254 (30%), Method: PREINCUBATION): inactive; negative |
| CC(=O)/C=C/c1ccco1 | inactive; negative | inactive; negative | inactive; negative | inactive; negative | inactive; negative | inactive; negative | inactive; negative | inactive; negative | inactive; negative | inactive; negative | inactive; negative | inactive; negative |  |
| CN(Cc1cccc(Br)c1)N=O |  |  |  |  |  |  |  |  |  |  |  |  | mutagenic call (Strain/Indicator: TA1535, Metabolic Activation: HAMSTER, LIVER, S-9, AROCLOR 1254, Method: STANDARD PLATE): active; positive; mutagenic call (Strain/Indicator: TA1535, Metabolic Activation: NONE, Method: STANDARD PLATE): inactive; negative |
| OC[C@H](O)CCl |  | inactive; negative |  |  | active; positive |  |  |  |  |  |  |  | mutagenic call (Strain/Indicator: TA98, Metabolic Activation: RAT, LIVER, S-9, KANECHLOR 500, Method: PREINCUBATION): inactive; negative; mutagenic call (Strain/Indicator: TA100, Metabolic Activation: RAT, LIVER, S-9, KANECHLOR 500, Method: PREINCUBATION): inactive; negative; mutagenic call (Strain/Indicator: TA100, Metabolic Activation: RAT, LIVER, S-9, PCB, Method: PREINCUBATION): active; positive |
| O=C1C=C(O)c2ccccc2C1=O | inactive; negative | inactive; negative | inactive; negative | inactive; negative | inactive; negative | inactive; negative | inactive; negative | inactive; negative | inactive; negative | inactive; negative | active; positive | inactive; negative | mutagenic call (Strain/Indicator: TA98, Metabolic Activation: RAT, LIVER, S-9, PHENOBARBITAL AND 5,6-BENZOFLAVONE, Method: PREINCUBATION): inactive; negative; mutagenic call (Strain/Indicator: TA100, Metabolic Activation: RAT, LIVER, S-9, PHENOBARBITAL AND 5,6-BENZOFLAVONE, Method: PREINCUBATION): inactive; negative; mutagenic call (Strain/Indicator: TA102, Metabolic Activation: NONE, Method: PREINCUBATION): inactive; negative; mutagenic call (Strain/Indicator: TA102, Metabolic Activation: RAT, LIVER, S-9, PHENOBARBITAL AND 5,6-BENZOFLAVONE, Method: PREINCUBATION): inactive; negative; mutagenic call (Strain/Indicator: TA104, Metabolic Activation: NONE, Method: PREINCUBATION): inactive; negative; mutagenic call (Strain/Indicator: TA104, Metabolic Activation: RAT, LIVER, S-9, PHENOBARBITAL AND 5,6-BENZOFLAVONE, Method: PREINCUBATION): inactive; negative; mutagenic call (Strain/Indicator: TA1535, Metabolic Activation: RAT, LIVER, S-9, PHENOBARBITAL AND 5,6-BENZOFLAVONE, Method: PREINCUBATION): inactive; negative; mutagenic call (Strain/Indicator: TA1537, Metabolic Activation: RAT, LIVER, S-9, PHENOBARBITAL AND 5,6-BENZOFLAVONE, Method: PREINCUBATION): inactive; negative; mutagenic call (Strain/Indicator: TA1538, Metabolic Activation: NONE, Method: PREINCUBATION): inactive; negative; mutagenic call (Strain/Indicator: TA1538, Metabolic Activation: RAT, LIVER, S-9, PHENOBARBITAL AND 5,6-BENZOFLAVONE, Method: PREINCUBATION): inactive; negative; mutagenic call (Strain/Indicator: TA2637, Metabolic Activation: NONE, Method: PREINCUBATION): inactive; negative; mutagenic call (Strain/Indicator: TA2637, Metabolic Activation: RAT, LIVER, S-9, PHENOBARBITAL AND 5,6-BENZOFLAVONE, Method: PREINCUBATION): inactive; negative |
